What was measured:
Details in all cases: treatment: drug alone; 5 days
[1] = tested on: UO-31; experiment: GI50, drug alone; higher = less potent
Description: (§1)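 Primary HTS: 8 RCC cell lines treated with 8 doses (up to 10 uM) of each library drug alone for 5 days; viability read by CellTiter-Glo and normalised to DMSO. GI50 was fitted with XLfit (4-parameter), AUC is the area under the dose-response curve, and minimum viability is the lowest fraction of DMSO viability across doses.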

[2] = tested on: ACHN; experiment: GI50, drug alone; higher = less potent
Description: as §1

[3] = tested on: 786-O; experiment: GI50, drug alone; higher = less potent
Description: as §1

[4] = tested on: A498; experiment: GI50, drug alone; higher = less potent
Description: as §1

[5] = tested on: CAKI-1; experiment: GI50, drug alone; higher = less potent
Description: as §1

[6] = tested on: SN12C; experiment: GI50, drug alone; higher = less potent
Description: as §1

[7] = tested on: 769-P; experiment: GI50, drug alone; higher = less potent
Description: as §1

[8] = tested on: TK-10; experiment: GI50, drug alone; higher = less potent
Description: as §1

[9] = tested on: UO-31; experiment: minimum viability across doses, drug alone, relative to DMSO (fraction); higher = less growth inhibition
Description: as §1

[10] = tested on: ACHN; experiment: as above
Description: as §1

[11] = tested on: 786-O; experiment: as above
Description: as §1

[12] = tested on: A498; experiment: as above
Description: as §1

[13] = tested on: CAKI-1; experiment: as above
Description: as §1

[14] = tested on: SN12C; experiment: as above
Description: as §1

[15] = tested on: 769-P; experiment: as above
Description: as §1

[16] = tested on: TK-10; experiment: as above
Description: as §1

[17] = tested on: UO-31; experiment: AUC of dose-response viability curve, drug alone (arbitrary (AUC of normalised viability)); higher = less growth inhibition
Description: as §1

[18] = tested on: ACHN; experiment: as above
Description: as §1

[19] = tested on: 786-O; experiment: as above
Description: as §1

[20] = tested on: A498; experiment: as above
Description: as §1

[21] = tested on: CAKI-1; experiment: as above
Description: as §1

[22] = tested on: SN12C; experiment: as above
Description: as §1

[23] = tested on: 769-P; experiment: as above
Description: as §1

[24] = tested on: TK-10; experiment: as above
Description: as §1

| SMILES | GI50, drug alone [1] | GI50, drug alone [2] | GI50, drug alone [3] | GI50, drug alone [4] | GI50, drug alone [5] | GI50, drug alone [6] | GI50, drug alone [7] | GI50, drug alone [8] | minimum viability across doses [9] | minimum viability across doses [10] | minimum viability across doses [11] | minimum viability across doses [12] | minimum viability across doses [13] | minimum viability across doses [14] | minimum viability across doses [15] | minimum viability across doses [16] | AUC of dose-response viability curve [17] | AUC of dose-response viability curve [18] | AUC of dose-response viability curve [19] | AUC of dose-response viability curve [20] | AUC of dose-response viability curve [21] | AUC of dose-response viability curve [22] | AUC of dose-response viability curve [23] | AUC of dose-response viability curve [24] |
| --- | --- | --- | --- | --- | --- | --- | --- | --- | --- | --- | --- | --- | --- | --- | --- | --- | --- | --- | --- | --- | --- | --- | --- | --- |
| COC[C@H]1OC(=O)c2coc3c2[C@@]1(C)C1=C(C3=O)[C@@H]2CCC(=O)[C@@]2(C)C[C@@H]1OC(C)=O [Wortmannin] | > 10 µM | 0.0981 µM | 0.0493 µM | 0.0833 µM | 2.42 µM | 0.0835 µM | > 10 µM | > 10 µM | 0.643 | 0.426 | 0.00957 | 0.421 | 0.301 | 0.387 | 0.55 | 0.725 | 2.58 | 2.78 | 1.99 | 3.03 | 2.45 | 2.78 | 3.15 | 3.1 |
| Cc1ccc(S(=O)(=O)Nc2nc3ccccc3nc2Nc2ccc3nsnc3c2)cc1 [XL147] | > 10 µM | > 10 µM | > 10 µM | > 10 µM | > 10 µM | > 10 µM | > 10 µM | > 10 µM | 1.13 | 0.811 | 0.768 | 0.933 | 1.03 | 0.92 | 0.884 | 0.902 | 4.38 | 3.19 | 3.2 | 3.61 | 3.82 | 3.52 | 3.3 | 3.52 |
| COc1cc2nccc(Oc3ccc(NC(=O)C4(C(=O)Nc5ccc(F)cc5)CC4)cc3)c2cc1OC [XL-184 free base (Cabozantinib)] | > 10 µM | 1.34 µM | 5.69 µM | > 10 µM | 4.71 µM | 5.27 µM | > 10 µM | 4.14 µM | 0.675 | 0.221 | 0.222 | 0.805 | 0.116 | 0.279 | 0.557 | 0.102 | 3.88 | 2.25 | 3.06 | 3.95 | 3.2 | 2.92 | 3.39 | 2.91 |
| COCC[n+]1c2c(n(Cc3cnccn3)c1C)C(=O)c1ccccc1C2=O [YM155] | 0.0256 µM | 0.0133 µM | > 10 µM | 0.0124 µM | 0.0125 µM | 0.0113 µM | 0.0145 µM | 0.0277 µM | 0.00519 | 0.00196 | 0.00377 | 0.0106 | 0.00636 | 0.00269 | 0.00858 | 0.0341 | 0.852 | 0.648 | 0.165 | 0.68 | 0.655 | 0.567 | 0.736 | 1.14 |
| FC(F)c1nc2ccccc2n1-c1nc(N2CCOCC2)nc(N2CCOCC2)n1 [ZSTK474] | 1.45 µM | 0.699 µM | 0.299 µM | 2.17 µM | 0.431 µM | 1.23 µM | 1.09 µM | 0.547 µM | 0.0171 | 0.0879 | 0.0739 | 0.0458 | 0.109 | 0.172 | 0.127 | 0.158 | 2.73 | 2.36 | 1.95 | 2.84 | 2.12 | 2.48 | 2.38 | 2.17 |
| O=C(O)c1ccc2c(c1)nc(Nc1cccc(Cl)c1)c1ccncc12 [cx-4945 (Silmitasertib)] | > 10 µM | 8.87 µM | 5.23 µM | > 10 µM | 3.97 µM | > 10 µM | > 10 µM | > 10 µM | 0.541 | 0.238 | 0.259 | 0.956 | 0.0814 | 0.681 | 0.679 | 0.634 | 4.43 | 3.2 | 2.33 | 4.21 | 3.07 | 3.06 | 3.12 | 3.01 |
